Assay results from US20250368649A1, “TETRAHYDROPYRIDOPYRIMIDINE PAN-KRAS INHIBITORS” (Mirati Therapeutics, Inc., priority 2022, published 2025).

Key:
KRas G12D = KRas G12D (Homo sapiens, UniProt P01116, G12D); assay: biochemical; conditions: Binding to KRas (IC50 nM) G12D, TR-FRET displacement, KRas G12D
H460 cells = assay: Inhibition of KRas-mediated phosphorylation of ERK (Cisbio HTRF pERK), H460 cells; format: cell-based; conditions: Homo sapiens; for inhibition at 0.1 µM: NCI-H460, single point at 100 nM, 3 hrs compound incubation; for IC50: NCI-H460, 3 h, 3 hr compound incubation
MKN1 cells = assay: Inhibition of KRas-mediated phosphorylation of ERK (Cisbio HTRF pERK), MKN1 cells; format: cell-based; conditions: Homo sapiens
Method in brief: (§1)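 Seeding density of 6,000 cells per well was used, with cultures kept in RPMI/10% FBS from day 1.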

PSN1 cells = assay: Inhibition of KRas-mediated phosphorylation of ERK (Cisbio HTRF pERK), PSN1 cells; format: cell-based; conditions: Homo sapiens, PSN1, 3 h
Method in brief: as §1

HCT116 cells = assay: Inhibition of KRas-mediated phosphorylation of ERK (Cisbio HTRF pERK), HCT116 cells; format: cell-based; conditions: Homo sapiens; for inhibition at 0.1 µM: HCT-116, single point at 100 nM, 3 hrs compound incubation; for IC50: HCT-116, 3 h, 3 hr compound incubation
ASPC1 cells = assay: Inhibition of KRas-mediated phosphorylation of ERK (Cisbio HTRF pERK), ASPC1 cells; format: cell-based; conditions: Homo sapiens, AsPC-1 cells; for IC50: ASPC1, 3 h, 3 hr compound incubation
KRas G12V = KRas G12V (Homo sapiens, UniProt P01116, G12V); assay: biochemical; conditions: Binding to KRas (IC50 nM) G12V, TR-FRET displacement, KRas G12V
H358 cells = assay: Inhibition of KRas-mediated phosphorylation of ERK (Cisbio HTRF pERK), H358 cells; format: cell-based; conditions: Homo sapiens; for inhibition at 0.1 µM: NCI-H358, single point at 100 nM, 3 hrs compound incubation; for IC50: NCI-H358, 3 h, 3 hr compound incubation
H727 cells = assay: Inhibition of KRas-mediated phosphorylation of ERK (Cisbio HTRF pERK), H727 cells; format: cell-based; conditions: Homo sapiens; for IC50: NCI-H727, 3 h, 3 hr compound incubation
A549 cells = assay: Inhibition of KRas-mediated phosphorylation of ERK (Cisbio HTRF pERK), A549 cells; format: cell-based; conditions: Homo sapiens; for inhibition at 0.1 µM: single point at 100 nM, 3 hrs compound incubation; for IC50: A549, 3 h, 3 hr compound incubation
KRas G12R = KRas G12R (Homo sapiens, UniProt P01116, G12R); assay: biochemical; conditions: Binding to KRas (IC50 nM) G12R, TR-FRET displacement, KRas G12R
[1] = MKN-1, 3 hour compound incubation, Cisbio pERK HTRF
[2] = 3 hour compound incubation, Cisbio pERK HTRF
[3] = MKN-1, 3 hr compound incubation

KRas G12V, sequence (P01116 1-169 isoform P01116-2 G12V): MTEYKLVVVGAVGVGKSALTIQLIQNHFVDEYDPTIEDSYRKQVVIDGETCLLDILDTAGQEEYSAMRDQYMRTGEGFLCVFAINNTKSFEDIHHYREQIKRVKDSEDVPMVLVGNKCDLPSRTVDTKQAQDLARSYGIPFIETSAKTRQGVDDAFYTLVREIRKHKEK
KRas G12R, sequence (P01116 1-169 isoform P01116-2 G12R): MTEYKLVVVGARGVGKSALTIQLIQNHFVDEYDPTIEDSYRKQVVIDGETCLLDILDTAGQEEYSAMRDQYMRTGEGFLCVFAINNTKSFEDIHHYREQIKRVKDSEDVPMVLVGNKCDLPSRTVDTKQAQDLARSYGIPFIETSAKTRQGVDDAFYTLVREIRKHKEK
KRas G12D, sequence (P01116 1-169 isoform P01116-2 G12D): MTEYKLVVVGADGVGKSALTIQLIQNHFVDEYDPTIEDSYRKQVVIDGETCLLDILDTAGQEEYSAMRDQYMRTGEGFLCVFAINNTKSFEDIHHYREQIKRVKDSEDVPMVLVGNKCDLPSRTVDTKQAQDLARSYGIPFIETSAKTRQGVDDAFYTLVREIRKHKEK

SMILES	IC50 (KRas G12D)	inhibition at 0.1 µM (H460 cells)	IC50 (MKN1 cells; [1])	IC50 (PSN1 cells; [2])	inhibition at 0.1 µM (HCT116 cells)	IC50 (ASPC1 cells; Cisbio pERK HTRF)	IC50 (KRas G12V)	inhibition at 0.1 µM (H358 cells)	IC50 (H727 cells; Cisbio pERK HTRF)	inhibition at 0.1 µM (A549 cells)	IC50 (KRas G12R)	IC50 (H460 cells; Cisbio pERK HTRF)	IC50 (HCT116 cells; Cisbio pERK HTRF)	IC50 (H358 cells; Cisbio pERK HTRF)	IC50 (A549 cells; Cisbio pERK HTRF)	also measured
CCc1c(F)ccc2cc(O)cc(N3CCc4c(nc(OC[C@@]56CCCN5C[C@H](F)C6)nc4N4CCCn5nc(C(=O)N6CCC7CC6CN7C)cc5C4)C3)c12 (stereo partly drawn) [Example 501, (5-(7-(8-ethyl-7-fluoro-3-hydroxynaphthalen-1-yl)-2-(((2R,7aS)-2-fluorohexahydro-1H-pyrrolizin-7a-yl)methoxy)-5,6,7,8-tetrahydropyrido[3,4-d]pyrimidin-4-yl)-5,6,7,8-tetrahydro-4H-pyrazolo[1,5-a][1,4]diazepin-2-yl)(6-methyl-2,6-diazabicyclo[3.2.1]octan-2-yl)methanone]	< 2 nM	17%	41.2 nM	> 10000 nM	23%	23 nM	< 2 nM	95%	132 nM	27%	2 nM					inhibition at 0.1 µM (ASPC1 cells; ASPC1, single point at 100 nM, 3 hrs compound incubation): 86%; inhibition at 0.1 µM (H727 cells; NCI-H727, single point at 100 nM, 3 hrs compound incubation): 40%
CCc1c(F)ccc2cc(O)cc(N3CCc4c(nc(OC[C@@]56CCCN5C[C@H](F)C6)nc4N4C[C@@H]5C[C@H](C4)[C@H](O)C5)C3)c12 [Example 585B, (1R,5R,6R)-3-(7-(8-ethyl-7-fluoro-3-hydroxynaphthalen-1-yl)-2-(((2R,7aS)-2-fluorotetrahydro-1H-pyrrolizin-7a(5H)-yl)methoxy)-5,6,7,8-tetrahydropyrido[3,4-d]pyrimidin-4-yl)-3-azabicyclo[3.2.1]octan-6-ol]	3 nM		19.7 nM	6500 nM		273 nM	< 2 nM		191 nM		< 2 nM	163 nM	439 nM	111 nM	125 nM	
CCc1c(F)ccc2cc(O)cc(N3CCc4c(nc(OC[C@@]56CCCN5C[C@H](F)C6)nc4N4CCCn5nc(CNS(=O)(=O)N(C)C)cc5C4)C3)c12 [Example 336, 7-(8-ethyl-7-fluoro-3-hydroxy-1-naphthyl)-2-(((2R,7aS)-2-fluorotetrahydro-1H-pyrrolizin-7a(5H)-yl)methoxy)-4-(2-((dimethylsulfamoyl)amino)methyl-7,8-dihydro-4H-pyrazolo[1,5-a][1,4]diazepin-5(6H)-yl)-6,8-dihydro-5H-pyrido[3,4-d]pyriimidine]	3 nM	1%	531 nM	> 10000 nM	-11%	289 nM	8 nM	-26%	517 nM	-24%	7 nM					
CCc1c(F)ccc2cc(O)cc(N3CCc4c(nc(OC[C@@]56CCCN5C[C@H](F)C6)nc4N4CCCn5nc(CNC(=O)NC)cc5C4)C3)c12 [Example 352, 1-((5-(7-(8-ethyl-7-fluoro-3-hydroxynaphthalen-1-yl)-2-(((2R,7aS)-2-fluorohexahydro-1H-pyrrolizin-7a-yl)methoxy)-5,6,7,8-tetrahydropyrido[3,4-d]pyrimidin-4-yl)-5,6,7,8-tetrahydro-4H-pyrazolo[1,5-a][1,4]diazepin-2-yl)methyl)-3-methylurea]	< 2 nM	-4%	1110 nM	> 10000 nM	-2%	1820 nM	2 nM	-7%	1950 nM	-15%	2 nM					
CCc1c(F)ccc2cc(O)cc(N3CCc4c(nc(OCC5(CN(C)C)CC5)nc4N4CC(C)CC(CO)C4)C3)c12 (centres unmarked) [Example 596, 4-(2-((1-((dimethylamino)methyl)cyclopropyl)methoxy)-4-(3-(hydroxymethyl)-5-methylpiperidin-1-yl)-5,8-dihydropyrido[3,4-d]pyrimidin-7(6H)-yl)-5-ethyl-6-fluoronaphthalen-2-ol]	11 nM		> 10000 nM	> 10000 nM		1920 nM	7 nM		2490 nM		9 nM	1280 nM	3340 nM	595 nM	2670 nM	
CCc1c(F)ccc2cc(O)cc(N3CCc4c(nc(OC[C@@]56CCCN5C[C@H](F)C6)nc4N4CCCn5nc(C(=O)N6CC[C@H]7C[C@@H]6CO7)cc5C4)C3)c12 [Example 623, ((1R,5S)-6-oxa-2-azabicyclo[3.2.1]octan-2-yl)(5-(7-(8-ethyl-7-fluoro-3-hydroxynaphthalen-1-yl)-2-(((2R,7aS)-2-fluorotetrahydro-1H-pyrrolizin-7a(5H)-yl)methoxy)-5,6,7,8-tetrahydropyrido[3,4-d]pyrimidin-4-yl)-5,6,7,8-tetrahydro-4H-pyrazolo[1,5-a][1,4]diazepin-2-yl)methanone]	< 2 nM						< 2 nM				< 2 nM					IC50 (H460 cells): 12 nM; IC50 (MKN1 cells; [3]): 1.6 nM; IC50 (PSN1 cells; 3 hr compound incubation): 1420 nM; IC50 (HCT116 cells): 31 nM; IC50 (ASPC1 cells): 1 nM; IC50 (H358 cells): 1 nM; IC50 (H727 cells): 2 nM; IC50 (A549 cells): 5 nM
CCc1c(F)ccc2cc(O)cc(N3CCc4c(nc(OCC5(CN(C)C)CC5)nc4N4CCCC(n5ccc(C)n5)C4)C3)c12 (centres unmarked) [Example 600, 4-(2-((1-((dimethylamino)methyl)cyclopropyl)methoxy)-4-(3-(3-methyl-1H-pyrazol-1-yl)piperidin-1-yl)-5,8-dihydropyrido[3,4-d]pyrimidin-7(6H)-yl)-5-ethyl-6-fluoronaphthalen-2-ol]	33 nM		1120 nM	605 nM		4980 nM	25 nM		6290 nM		7 nM	1210 nM	3290 nM	808 nM	> 10000 nM	
CCc1c(F)ccc2cc(O)cc(N3CCc4c(nc(OC[C@@]56CCCN5C[C@H](F)C6)nc4N4CCCn5ncc(Cl)c5C4)C3)c12 [Example 642, 4-(4-(3-chloro-7,8-dihydro-4H-pyrazolo[1,5-a][1,4]diazepin-5(6H)-yl)-2-(((2R,7aS)-2-fluorotetrahydro-1H-pyrrolizin-7a(5H)-yl)methoxy)-5,8-dihydropyrido[3,4-d]pyrimidin-7(6H)-yl)-5-ethyl-6-fluoronaphthalen-2-ol]	< 2 nM						< 2 nM				3 nM					IC50 (H460 cells): 325 nM; IC50 (MKN1 cells; [3]): 120 nM; IC50 (PSN1 cells; 3 hr compound incubation): > 10000 nM; IC50 (HCT116 cells): 738 nM; IC50 (ASPC1 cells): 59 nM; IC50 (H358 cells): 105 nM; IC50 (H727 cells): 200 nM; IC50 (A549 cells): 145 nM
CCc1c(NC)nn2c1CN(c1nc(OC[C@@]34CCCN3C[C@H](F)C4)nc3c1CCN(c1cc(O)cc4ccc(F)c(CC)c14)C3)CCC2 [Example 404]	5 nM		43.5 nM	> 10000 nM		182 nM	6 nM		188 nM		3 nM	178 nM	424 nM		134 nM	
CCc1c(F)ccc2cc(O)cc(N3CCc4c(nc(OC[C@@]56CCCN5C[C@H](F)C6)nc4N4CCCSCC4)C3)c12 [Example 417, 5-ethyl-6-fluoro-4-(2-(((2R,7aS)-2-fluorohexahydro-1H-pyrrolizin-7a-yl)methoxy)-4-(1,4-thiazepan-4-yl)-5,6-dihydropyrido[3,4-d]pyrimidin-7(8H)-yl)naphthalen-2-ol]	13 nM		29.3 nM	5700 nM		208 nM	< 2 nM		128 nM		< 2 nM	84 nM	273 nM		63 nM	
